Source: patent US11826373B2, “Methods for treatment of diseases” (Galera Labs, LLC, priority 2011, dated 2023)

Experiments:
beagle dogs = experiment: GC4403 7-day IV toxicity in dog; type: in vivo; details: 7 days
Experimental: GC4403 in 26 mM sodium bicarbonate/0.9% sodium chloride was administered to beagle dogs (4/sex/group) IV (slow bolus injection over at least 1 minute) at dosages of 0, 1, 3 or 6 mg/kg/day for 7 days. There was no mortality during the study. […] At 6 mg/kg/day, animals also had tremors, abnormal stance and gait, inability to stand and prostration. Generally, clinical signs had resolved by two hours after dose administration. As the study progressed, some clinical signs (tremors, inability to stand, prostration and abnormal stance and gait) lessened slightly. […] The lower white cell counts correlated with lower absolute neutrophil and eosinophil counts at ≥3 mg/kg/day, which were, however, within the normal historical values for these parameters. At necropsy, there were no changes in organ weights compared to control animals nor were there macroscopic or microscopic changes in any organs with the exception of fibrosis in the heart of one male at 3 mg/kg/day and 1 male at 6 mg/kg/day.

[1] = system: healthy male and female subjects; experiment: Human Phase 1 single rising dose safety and tolerability of GC4403; type: in vivo
Experimental: In a Phase 1 randomized, double-blind, placebo-controlled single rising dose safety, tolerability and pharmacokinetics study, 54 healthy male and female subjects were dosed from 2.2 to 25 mg of GC4403 administered intravenously over 30 minutes. Disposition of GC4403 is multi-exponential and follows linear pharmacokinetics with generally proportional increases in AUC and Cmax with increasing dose over the dose ranges studied. […] GC4403 is excreted unchanged in the urine and accounts for approximately 9 to 17% of the dose administered. No significant cardiovascular or vital sign effects, no significant physical examination abnormalities, and no significant abnormalities in routine clinical laboratory assessments were observed. Facial tingling, generalized tingling, paraesthesias and facial warmth were reported in a dose responsive manner, occurring at the 16.7 and 25 mg GC4403 doses.

## [Cl][Mn-5]1234([Cl])[n+]5c6cccc5C[NH+]1[C@@H]1CCCC[C@H]1[NH+]2CC[NH+]3[C@@H]1CCCC[C@H]1[NH+]4C6 (stereo partly shown) [GC4403]
Beagle dogs; dog, 1, 3 or 6 mg/kg/day IV
  mortality: no mortality
Beagle dogs; dog, IV slow bolus injection
  no observed toxic event level (NOTEL): 3 mg/kg/day
Beagle dogs; dog, IV slow bolus, scratching, facial swelling, raised red areas, partial closing of the eyes
  dosage at which clinical signs immediately after dose administration were observed: ≥ 3 mg/kg/day
[1]; 2.2 mg, 4 subjects dosed
  Any Event (treatment-emergent adverse event): 1 (25) N (%)
  Conjunctivitis (treatment-emergent adverse event): 1 (25) N (%)
  Cough (treatment-emergent adverse event): 0 (0) N (%)
  Discolored Urine (treatment-emergent adverse event): 0 (0) N (%)
  Drowsiness (treatment-emergent adverse event): 0 (0) N (%)
  Facial Warmth (treatment-emergent adverse event): 0 (0) N (%)
  Feeling Drunk (treatment-emergent adverse event): 0 (0) N (%)
  Headache (treatment-emergent adverse event): 0 (0) N (%)
  Inj. Site Pressure (treatment-emergent adverse event): 0 (0) N (%)
  Inj. Site Reaction (treatment-emergent adverse event): 0 (0) N (%)
  Injection Site Pain (treatment-emergent adverse event): 0 (0) N (%)
  Lightheadedness (treatment-emergent adverse event): 0 (0) N (%)
  Paresthesia (treatment-emergent adverse event): 0 (0) N (%)
  Skin Tightness (treatment-emergent adverse event): 0 (0) N (%)
  Taste Perversion (treatment-emergent adverse event): 0 (0) N (%)
  Tingling (treatment-emergent adverse event): 0 (0) N (%)
  Tingling Mouth (treatment-emergent adverse event): 0 (0) N (%)
[1]; 3.3 mg, 4 subjects dosed
  Any Event (treatment-emergent adverse event): 2 (50) N (%)
  Conjunctivitis (treatment-emergent adverse event): 0 (0) N (%)
  Cough (treatment-emergent adverse event): 0 (0) N (%)
  Discolored Urine (treatment-emergent adverse event): 0 (0) N (%)
  Drowsiness (treatment-emergent adverse event): 0 (0) N (%)
  Facial Warmth (treatment-emergent adverse event): 0 (0) N (%)
  Feeling Drunk (treatment-emergent adverse event): 0 (0) N (%)
  Headache (treatment-emergent adverse event): 0 (0) N (%)
  Inj. Site Pressure (treatment-emergent adverse event): 0 (0) N (%)
  Inj. Site Reaction (treatment-emergent adverse event): 1 (25) N (%)
  Injection Site Pain (treatment-emergent adverse event): 0 (0) N (%)
  Lightheadedness (treatment-emergent adverse event): 1 (25) N (%)
  Paresthesia (treatment-emergent adverse event): 0 (0) N (%)
  Skin Tightness (treatment-emergent adverse event): 0 (0) N (%)
  Taste Perversion (treatment-emergent adverse event): 0 (0) N (%)
  Tingling (treatment-emergent adverse event): 0 (0) N (%)
  Tingling Mouth (treatment-emergent adverse event): 0 (0) N (%)
[1]; 4.9 mg, 4 subjects dosed
  Any Event (treatment-emergent adverse event): 1 (25) N (%)
  Conjunctivitis (treatment-emergent adverse event): 0 (0) N (%)
  Cough (treatment-emergent adverse event): 0 (0) N (%)
  Discolored Urine (treatment-emergent adverse event): 0 (0) N (%)
  Drowsiness (treatment-emergent adverse event): 0 (0) N (%)
  Facial Warmth (treatment-emergent adverse event): 0 (0) N (%)
  Feeling Drunk (treatment-emergent adverse event): 0 (0) N (%)
  Headache (treatment-emergent adverse event): 0 (0) N (%)
  Inj. Site Pressure (treatment-emergent adverse event): 0 (0) N (%)
  Inj. Site Reaction (treatment-emergent adverse event): 0 (0) N (%)
  Injection Site Pain (treatment-emergent adverse event): 0 (0) N (%)
  Lightheadedness (treatment-emergent adverse event): 0 (0) N (%)
  Paresthesia (treatment-emergent adverse event): 0 (0) N (%)
  Skin Tightness (treatment-emergent adverse event): 0 (0) N (%)
  Taste Perversion (treatment-emergent adverse event): 0 (0) N (%)
  Tingling (treatment-emergent adverse event): 0 (0) N (%)
  Tingling Mouth (treatment-emergent adverse event): 0 (0) N (%)
[1]; 7.4 mg, 4 subjects dosed
  Any Event (treatment-emergent adverse event): 3 (75) N (%)
  Conjunctivitis (treatment-emergent adverse event): 0 (0) N (%)
  Cough (treatment-emergent adverse event): 0 (0) N (%)
  Discolored Urine (treatment-emergent adverse event): 0 (0) N (%)
  Drowsiness (treatment-emergent adverse event): 0 (0) N (%)
  Facial Warmth (treatment-emergent adverse event): 0 (0) N (%)
  Feeling Drunk (treatment-emergent adverse event): 0 (0) N (%)
  Headache (treatment-emergent adverse event): 1 (25) N (%)
  Inj. Site Pressure (treatment-emergent adverse event): 1 (25) N (%)
  Inj. Site Reaction (treatment-emergent adverse event): 0 (0) N (%)
  Injection Site Pain (treatment-emergent adverse event): 0 (0) N (%)
  Lightheadedness (treatment-emergent adverse event): 0 (0) N (%)
  Paresthesia (treatment-emergent adverse event): 0 (0) N (%)
  Skin Tightness (treatment-emergent adverse event): 0 (0) N (%)
  Taste Perversion (treatment-emergent adverse event): 0 (0) N (%)
  Tingling (treatment-emergent adverse event): 0 (0) N (%)
  Tingling Mouth (treatment-emergent adverse event): 0 (0) N (%)
[1]; 11.1 mg, 4 subjects dosed
  Any Event (treatment-emergent adverse event): 0 (0) N (%)
  Conjunctivitis (treatment-emergent adverse event): 0 (0) N (%)
  Cough (treatment-emergent adverse event): 0 (0) N (%)
  Discolored Urine (treatment-emergent adverse event): 0 (0) N (%)
  Drowsiness (treatment-emergent adverse event): 0 (0) N (%)
  Facial Warmth (treatment-emergent adverse event): 0 (0) N (%)
  Feeling Drunk (treatment-emergent adverse event): 0 (0) N (%)
  Headache (treatment-emergent adverse event): 0 (0) N (%)
  Inj. Site Pressure (treatment-emergent adverse event): 0 (0) N (%)
  Inj. Site Reaction (treatment-emergent adverse event): 0 (0) N (%)
  Injection Site Pain (treatment-emergent adverse event): 0 (0) N (%)
  Lightheadedness (treatment-emergent adverse event): 0 (0) N (%)
  Paresthesia (treatment-emergent adverse event): 0 (0) N (%)
  Skin Tightness (treatment-emergent adverse event): 0 (0) N (%)
  Taste Perversion (treatment-emergent adverse event): 0 (0) N (%)
  Tingling (treatment-emergent adverse event): 0 (0) N (%)
  Tingling Mouth (treatment-emergent adverse event): 0 (0) N (%)
[1]; 16.7 mg, 4 subjects dosed
  Any Event (treatment-emergent adverse event): 2 (50) N (%)
  Conjunctivitis (treatment-emergent adverse event): 0 (0) N (%)
  Cough (treatment-emergent adverse event): 1 (25) N (%)
  Discolored Urine (treatment-emergent adverse event): 0 (0) N (%)
  Drowsiness (treatment-emergent adverse event): 0 (0) N (%)
  Facial Warmth (treatment-emergent adverse event): 0 (0) N (%)
  Feeling Drunk (treatment-emergent adverse event): 0 (0) N (%)
  Headache (treatment-emergent adverse event): 1 (25) N (%)
  Inj. Site Pressure (treatment-emergent adverse event): 0 (0) N (%)
  Inj. Site Reaction (treatment-emergent adverse event): 0 (0) N (%)
  Injection Site Pain (treatment-emergent adverse event): 1 (25) N (%)
  Lightheadedness (treatment-emergent adverse event): 0 (0) N (%)
  Paresthesia (treatment-emergent adverse event): 0 (0) N (%)
  Skin Tightness (treatment-emergent adverse event): 0 (0) N (%)
  Taste Perversion (treatment-emergent adverse event): 0 (0) N (%)
  Tingling (treatment-emergent adverse event): 2 (50) N (%)
  Tingling Mouth (treatment-emergent adverse event): 0 (0) N (%)
[1]; 25.0 mg, 12 subjects dosed
  Any Event (treatment-emergent adverse event): 10 (87.3) N (%)
  Conjunctivitis (treatment-emergent adverse event): 0 (0) N (%)
  Cough (treatment-emergent adverse event): 0 (0) N (%)
  Discolored Urine (treatment-emergent adverse event): 1 (8.3) N (%)
  Drowsiness (treatment-emergent adverse event): 1 (8.3) N (%)
  Facial Warmth (treatment-emergent adverse event): 1 (8.3) N (%)
  Feeling Drunk (treatment-emergent adverse event): 1 (8.3) N (%)
  Headache (treatment-emergent adverse event): 1 (8.3) N (%)
  Inj. Site Pressure (treatment-emergent adverse event): 1 (8.3) N (%)
  Inj. Site Reaction (treatment-emergent adverse event): 1 (8.3) N (%)
  Injection Site Pain (treatment-emergent adverse event): 4 (33.3) N (%)
  Lightheadedness (treatment-emergent adverse event): 2 (16.7) N (%)
  Paresthesia (treatment-emergent adverse event): 1 (8.3) N (%)
  Skin Tightness (treatment-emergent adverse event): 1 (8.3) N (%)
  Taste Perversion (treatment-emergent adverse event): 1 (8.3) N (%)
  Tingling (treatment-emergent adverse event): 3 (25.0) N (%)
  Tingling Mouth (treatment-emergent adverse event): 5 (41.7) N (%)
[1]; 2.2 to 25 mg IV over 30 minutes
  maximum tolerated dose (MTD): not established
[1]; healthy subjects
  tolerability of single doses up to 25 mg: no severe adverse events
